According to article PMC11769049, “Phytomedicine Potential of Oroxylum indicum Root and Its Constituents: Targeting Alzheimer’s Disease” (Plants, 2025):

Experiments:
[1] = target: T1, Electric eel-type VI-S AChE (Electrophorus electricus, UniProt O42275); test: AChE inhibition, modified Ellman's method; assay type: biochemical
T1 construct: purchased
Experimental: The anti-acetylcholinesterase activity of the extract of O. indicum root and its three constituent compounds was evaluated using a modified Ellman’s method. A microplate-based assay was conducted in triplicate, comprising (i) 25 µL of 1 mM acetylthiocholine iodide, (ii) 50 µL of 0.1 M phosphate buffer (PBS), (iii) 25 µL of the sample, and (iv) 125 µL of 1 mM dithiobisnitrobenzoic acid. Electric eel-type VI-S AChE (0.2 Units/mL) was added. The control group lacked both the sample and enzyme. […] Tacrine served as a reference standard. Enzymatic activity and percent inhibition were assessed. The following equation was used to determine inhibitory activity:Percentage inhibition = [(AE − As)/(AE − AC)] × 100 where AE, AC, and As represent the enzymatic activities of the enzyme, control, and sample, respectively. The AChE inhibitory activity of the samples was expressed as the half-maximal inhibitory concentration (IC50).

Bax = test: Western blot of Bax in H2O2-exposed SH-SY5Y cells; assay type: cell-based, Human; settings: 250 μM H2O2, pretreatment with extract (1, 3, 10 µg/mL) or baicalein (1, 3, 10 µM)
Experimental: (§1) Neuronal cells were pretreated with the extract (1, 3, and 10 µg/mL) or baicalein (1, 3, and 10 µM) for 30 min, followed by induction of oxidative stress with hydrogen peroxide (H2O2). […] NAC (100 µg/mL) was used for the standard substance. For the experiment, SH-SY5Y cells (1 × 10^5 cells/well) were seeded onto a 6-well plate and cultured for 2 days. […] After washing unabsorbed chemicals, the cells were exposed to 250 μM H2O2 for 5 min. Treated cells were lysed with an ice-cold lysis solution. The supernatant was obtained after centrifuging the lysate at 13,500 rpm for 10 min at 4 °C. The Bradford test was used to determine the total protein content. Proteins were separated on a polyvinylidene difluoride membrane using SDS-PAGE. After blocking with BlockAce, the membrane was probed with primary antibodies against BAX, cleaved caspase-3, pTau, and BACE1. Secondary antibodies coupled with horseradish peroxidase were used for detection, followed by enhanced chemiluminescence.

cleaved caspase-3 = test: Western blot of cleaved caspase-3 in H2O2-exposed SH-SY5Y cells; assay type: cell-based, Human; settings: 250 μM H2O2, pretreatment with extract (1, 3, 10 µg/mL) or baicalein (1, 3, 10 µM)
Experimental: as §1

BACE1 = test: Western blot of BACE1 in H2O2-exposed SH-SY5Y cells; assay type: cell-based, Human; settings: 250 μM H2O2, pretreatment with extract (1, 3, 10 µg/mL) or baicalein (1, 3, 10 µM)
Experimental: as §1

[2] = test system: phosphorylated tau protein; test: Western blot of phosphorylated tau in H2O2-exposed SH-SY5Y cells; assay type: cell-based, Human; settings: 250 μM H2O2, pretreatment with extract (1, 3, 10 µg/mL) or baicalein (1, 3, 10 µM)
Experimental: as §1

[3] = DPPH radical scavenging method; settings: for IC50: read-out: IC50 DPPH, mean ± SD (n = 3)
Experimental: After 30 min incubation period, the absorbance at 520 nm was measured using a microplate reader. The DPPH radical scavenging ability was calculated according to the following equation:Percentage inhibition = [(ADPPH − Asample)/(ADPPH − Acontrol)] × 100 where ADPPH, Asample, and Acontrol are the absorbance values of DPPH solution, sample, and control, respectively.

Aβ1–42 = Aβ1–42 (Homo sapiens, UniProt P05067); test: Aβ1–42 aggregation inhibition, thioflavin-T (ThT) fluorescence assay
Sequence of Aβ1–42 (P05067 672-713 limits assumed): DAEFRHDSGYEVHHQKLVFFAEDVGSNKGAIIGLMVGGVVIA
Experimental: The aggregation of Aβ1–42 was monitored using a thioflavin-T (ThT) fluorescence assay [58]. […] Following a 48 h incubation period, the mixtures were treated with 175 µL of 5 µM ThT solution prepared in a glycine/NaOH buffer at pH 8.5.

T1 sequence (O42275 24-633): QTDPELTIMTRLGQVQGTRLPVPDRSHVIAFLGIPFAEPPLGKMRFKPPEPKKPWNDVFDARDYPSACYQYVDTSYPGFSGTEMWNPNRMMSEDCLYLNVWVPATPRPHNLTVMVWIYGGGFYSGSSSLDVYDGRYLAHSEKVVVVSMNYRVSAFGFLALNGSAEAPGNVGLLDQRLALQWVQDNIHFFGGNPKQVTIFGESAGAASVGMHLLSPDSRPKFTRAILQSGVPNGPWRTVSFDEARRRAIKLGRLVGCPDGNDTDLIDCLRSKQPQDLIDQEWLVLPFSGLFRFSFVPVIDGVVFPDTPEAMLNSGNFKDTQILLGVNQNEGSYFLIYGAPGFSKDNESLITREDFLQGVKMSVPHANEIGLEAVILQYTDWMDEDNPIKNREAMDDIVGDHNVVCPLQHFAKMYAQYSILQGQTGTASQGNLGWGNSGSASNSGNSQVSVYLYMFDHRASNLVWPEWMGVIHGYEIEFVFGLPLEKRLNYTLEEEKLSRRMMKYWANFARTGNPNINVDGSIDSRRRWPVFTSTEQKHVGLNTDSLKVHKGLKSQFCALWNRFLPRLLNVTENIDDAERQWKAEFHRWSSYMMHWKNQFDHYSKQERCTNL

| SMILES | IC50 [1] [µM] | expression of pro-apoptotic protein Bax (Bax) | expression of cleaved caspase-3 (cleaved caspase-3) | BACE1 expression (H2O2-induced increase) (BACE1) | levels of phosphorylated tau protein [2] | IC50 [3] [µM] | IC50 (Aβ1–42) [µM] | DPPH radical scavenging activity ([3]; up to 100 µg/mL) |
| --- | --- | --- | --- | --- | --- | --- | --- | --- |
| O=c1cc(-c2ccccc2)oc2cc(O)c(O)c(O)c12 [Baicalein] | 159 ± 1.15 | significantly downregulated | significantly downregulated | effectively mitigated this increase | significantly reduced | 19.08 ± 0.17 |  |  |
| O=c1cc(-c2ccccc2)oc2cc(O)cc(O)c12 [Chrysin] | 45.9 ± 1.32 |  |  |  |  | 63.3 ± 0.89 | 5.86 ± 0.16 |  |
| COc1c(O)cc2oc(-c3ccccc3)cc(=O)c2c1O [Oroxylin A] | 86.9 ± 1.85 |  |  |  |  | > 100 | 8.19 ± 0.28 | minimal DPPH radical scavenging activity |
| Cc1c(C)c2c(c(C)c1O)CCC(C)(C(=O)O)O2 (centres unmarked) [Trolox, reference compound] |  |  |  |  |  | 29.8 ± 1.59 |  |  |
